Experimental data from PubChem BioAssay AID256 (DTP/NCI, 2004).
Where “and” joins values, the source holds several entries; their conditions need not be identical. Equal values may be shown once. Toxic doses and inconclusive results are not listed. The calls were made as follows: active = survival T/C of 150% or more; inactive = T/C below 125% in these data.

System: CD2F1 mice, L1210 leukemia ip, survival T/C
Experiment: NCI In Vivo Anticancer Drug Screen. Data for tumor model L1210 Leukemia (intraperitoneal) in CD2F1 (CDF1) mice
Details: endpoint: mean survival time, higher = longer survival
How it was run: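 Mice carrying a transplanted tumor received test compound or vehicle alone. The value is the measurement in the treated group divided by that in the vehicle-treated control group.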

[1] = dose: 100.0 mg/kg/injection, schedule: Q04DX003 (ip), vehicle: saline with Tween-80
[2] = dose: 200.0 mg/kg/injection, schedule: Q04DX003 (ip), vehicle: saline with Tween-80
[3] = dose: 400.0 mg/kg/injection, schedule: Q04DX003 (ip), vehicle: saline with Tween-80
[4] = dose: 100.0 mg/kg/injection, schedule: Q04DX003 (ip), vehicle: saline
[5] = dose: 100.0 mg/kg/injection, schedule: Q01DX001 (ip), vehicle: saline
[6] = dose: 200.0 mg/kg/injection, schedule: Q01DX001 (ip), vehicle: saline
[7] = dose: 400.0 mg/kg/injection, schedule: Q01DX001 (ip), vehicle: saline

Measured: T/C

Nc1ncnc2c1c1c(SCc3ccc([N+](=O)[O-])cc3)ncnc1n2C1OC(CO)C(O)C1O (configuration not stated)
inactive: dose: 6.25 mg/kg/injection, schedule: Q01DX005 (ip), vehicle: other 104 % of control | dose: 12.5 mg/kg/injection, schedule: Q01DX005 (ip), vehicle: other 104 % of control | dose: 25.0 mg/kg/injection, schedule: Q01DX005 (ip), vehicle: other 104 % of control | dose: 50.0 mg/kg/injection, schedule: Q01DX005 (ip), vehicle: other 113 % of control | dose: 100.0 mg/kg/injection, schedule: Q01DX005 (ip), vehicle: other 103 % of control | dose: 200.0 mg/kg/injection, schedule: Q01DX005 (ip), vehicle: other 98 % of control

COc1ccc(/C=N/N=C(/N)N[N+](=O)[O-])cc1
inactive: dose: 100.0 mg/kg/injection, schedule: Q01DX001 (ip), vehicle: Klucel (hydroxypropylcellulose) (HPC) 94 % of control | dose: 200.0 mg/kg/injection, schedule: Q01DX001 (ip), vehicle: Klucel (hydroxypropylcellulose) (HPC) 97 % of control | dose: 400.0 mg/kg/injection, schedule: Q01DX001 (ip), vehicle: Klucel (hydroxypropylcellulose) (HPC) 94 % of control

Nc1cccc2sccc12
inactive: dose: 100.0 mg/kg/injection, schedule: Q04DX003 (ip), vehicle: other 106 % of control | dose: 200.0 mg/kg/injection, schedule: Q04DX003 (ip), vehicle: other 113 % of control | dose: 400.0 mg/kg/injection, schedule: Q04DX003 (ip), vehicle: other 101 % of control

Cc1ccc(C(=O)c2ccccc2C(=O)O)cc1O
inactive: [1] 98 % of control | [2] 101 % of control | [3] 106 % of control

Nc1ncnc2c1nc([Se])n2C1OC(CO)C(O)C1O (configuration not stated)
inactive: dose: 12.5 mg/kg/injection, schedule: Q01DX005 (ip), vehicle: water 100 % of control | dose: 25.0 mg/kg/injection, schedule: Q01DX005 (ip), vehicle: water 97 % of control | dose: 50.0 mg/kg/injection, schedule: Q01DX005 (ip), vehicle: water 100 % of control | dose: 100.0 mg/kg/injection, schedule: Q01DX005 (ip), vehicle: water 95 % of control | dose: 200.0 mg/kg/injection, schedule: Q01DX005 (ip), vehicle: water 90 % of control

CC(=O)C1CCOC1=O (configuration not stated)
inactive: [4] 96 % of control | dose: 200.0 mg/kg/injection, schedule: Q04DX003 (ip), vehicle: saline 104 % of control | dose: 400.0 mg/kg/injection, schedule: Q04DX003 (ip), vehicle: saline 98 % of control

Cc1ccc([NH-])c(Cl)c1.Cc1ccc([NH-])c(Cl)c1.[Cl][Pt+2][Cl]
inactive: dose: 12.5 mg/kg/injection, schedule: Q04DX003 (ip), vehicle: saline with Tween-80 95 % of control | dose: 25.0 mg/kg/injection, schedule: Q04DX003 (ip), vehicle: saline with Tween-80 97 % of control | dose: 50.0 mg/kg/injection, schedule: Q04DX003 (ip), vehicle: saline with Tween-80 97 % of control | [1] 97 % of control | [2] 89 % of control

Cc1ccc(S(=O)(=O)/C=C(\I)c2ccc([N+](=O)[O-])cc2)cc1
inactive: dose: 50.0 mg/kg/injection, schedule: Q04DX003 (ip), vehicle: saline 96 % of control | [4] 87 % of control

COC(=O)C1C2CCC(C2)C1C (configuration not stated)
inactive: dose: 25.0 mg/kg/injection, schedule: Q01DX009 (ip), vehicle: saline with Tween-80 93 % of control | dose: 50.0 mg/kg/injection, schedule: Q01DX009 (ip), vehicle: saline with Tween-80 104 % of control | dose: 100.0 mg/kg/injection, schedule: Q01DX009 (ip), vehicle: saline with Tween-80 98 % of control | [1] 90 % of control

C=C[Si](C=C)(C=C)C=C
inactive: [5] 101 % of control | [6] 104 % of control | [7] 107 % of control

C(/C=C/c1ccccc1)=Nc1ccc(CCc2ccc(N=C/C=C/c3ccccc3)cc2)cc1
inactive: dose: 100.0 mg/kg/injection, schedule: Q01DX001 (ip), vehicle: saline with Tween-80 103 % of control | dose: 200.0 mg/kg/injection, schedule: Q01DX001 (ip), vehicle: saline with Tween-80 93 % of control | dose: 400.0 mg/kg/injection, schedule: Q01DX001 (ip), vehicle: saline with Tween-80 91 % of control

NC(=O)c1cn(C2CCCCC2)c2ncccc12
inactive: [5] 96 % of control | [6] 96 % of control | [7] 102 % of control

Nc1c(Cl)c(Cl)c(Br)c(Cl)c1Cl
inactive: [1] 91 % of control | [2] 105 % of control | [3] 97 % of control

CNc1nc2c(N)ncnc2n1C1OC(CO)C(O)C1O (configuration not stated)
inactive: dose: 3.12 mg/kg/injection, schedule: Q01DX009 (ip), vehicle: saline 95 % of control | dose: 6.25 mg/kg/injection, schedule: Q01DX009 (ip), vehicle: saline 106 % of control | dose: 12.5 mg/kg/injection, schedule: Q01DX009 (ip), vehicle: saline 106 % of control and 107 % of control | dose: 12.5 mg/kg/injection, schedule: Q04DX002 (ip), vehicle: saline 98 % of control | dose: 25.0 mg/kg/injection, schedule: Q01DX005 (ip), vehicle: distilled water + Tween-80 96 % of control | dose: 25.0 mg/kg/injection, schedule: Q01DX009 (ip), vehicle: saline 115 % of control and 101 % of control | dose: 25.0 mg/kg/injection, schedule: Q04DX002 (ip), vehicle: saline 102 % of control | dose: 50.0 mg/kg/injection, schedule: Q01DX005 (ip), vehicle: distilled water + Tween-80 103 % of control | dose: 50.0 mg/kg/injection, schedule: Q01DX009 (ip), vehicle: saline 102 % of control | dose: 50.0 mg/kg/injection, schedule: Q04DX002 (ip), vehicle: saline 112 % of control | dose: 100.0 mg/kg/injection, schedule: Q01DX005 (ip), vehicle: distilled water + Tween-80 100 % of control | dose: 100.0 mg/kg/injection, schedule: Q01DX009 (ip), vehicle: saline 108 % of control | dose: 200.0 mg/kg/injection, schedule: Q01DX005 (ip), vehicle: distilled water + Tween-80 96 % of control | dose: 400.0 mg/kg/injection, schedule: Q01DX005 (ip), vehicle: distilled water + Tween-80 101 % of control

C=CS(=O)(=O)c1ccccc1
inactive: dose: 18.0 mg/kg/injection, schedule: Q01DX009 (ip), vehicle: saline with Tween-80 96 % of control | dose: 36.0 mg/kg/injection, schedule: Q01DX009 (ip), vehicle: saline with Tween-80 93 % of control | dose: 72.0 mg/kg/injection, schedule: Q01DX009 (ip), vehicle: saline with Tween-80 112 % of control

O=S1(=O)CCC(C2CCCCC2)C1 (configuration not stated)
inactive: [5] 95 % of control | [6] 98 % of control | [7] 106 % of control

CSc1nc(=O)[nH]nc1SCc1ccccc1
inactive: dose: 100.0 mg/kg/injection, schedule: Q01DX001 (ip), vehicle: carboxymethylcellulose (CMC) 100 % of control | dose: 200.0 mg/kg/injection, schedule: Q01DX001 (ip), vehicle: carboxymethylcellulose (CMC) 91 % of control | dose: 400.0 mg/kg/injection, schedule: Q01DX001 (ip), vehicle: carboxymethylcellulose (CMC) 89 % of control

COC1=CC(=O)C=C(OC)C1=O
inactive: dose: 4.0 mg/kg/injection, schedule: Q01DX009 (ip), vehicle: saline 96 % of control | dose: 8.0 mg/kg/injection, schedule: Q01DX009 (ip), vehicle: saline 98 % of control | dose: 16.0 mg/kg/injection, schedule: Q01DX009 (ip), vehicle: saline 96 % of control
